Results published in patent EP4722207A1, “OXOISOINDOLINYL-SUBSTITUTED TETRAHYDROPYRIMIDINEDIONE DERIVATIVE AND USE THEREOF” (Gluetacs Therapeutics (Shanghai) Co., Ltd., priority 2023, dated 2024).

How the values were obtained:
GSPT1 = molecular target: T1, GSPT1 (Homo sapiens, UniProt P15170+Q96SW2); assay: Western-blot assay, substrate protein degradation in hPBMCs: GSPT1; type: cell-based; settings: 24 hours of compound treatment, 50 nM and 500 nM
T1 construct: effects of the compounds of the present disclosure on the expression of target proteins in cells; endogenous in cells; host or cells: human PBMCs (hPBMCs)

H2228 = assay: Cell viability assay (CellTiter-Meiluncell Luminescent), tumor cell proliferation, H2228; settings: Homo sapiens, NCI-H2228, 96 h; for inhibition at 0.01 µM: read-out: Inhibition Rate at 10 nM (%); for inhibition at 0.5 µM: read-out: Inhibition Rate at 500 nM (%)
Procedure: The tumor cells used herein were cultured in a cell culture medium listed in table 2 at 37°C in an incubator with 5% CO2. Prior to experimentation, all cell lines used were correctly identified by STR profiling, and tested negative for mycoplasma contamination using a mycoplasma detection kit through routine screenings.
On the following day, the test compounds of the present disclosure were subjected to serial dilution. […] Subsequently, 0.5 µL of the test compound dilution was transferred into the 96-well plate containing the cells, with each well containing 100 µL of cell culture medium. […] Into the 96-well plate, the diluted test compounds and corresponding detection reagents were added, resulting in final test compound concentrations of 500 nM and 10 nM, respectively. The experimental procedure is described below using the diluted 2 µM test compound as an example.
After the cells were treated with the compounds of the present disclosure for a specified period, the cell viability assay reagent was added to the culture medium according to the kit's instructions to determine cell viability. […] All controls were treated using the same procedure as the compounds of the present disclosure. The growth inhibition curves for the compounds of the present disclosure were plotted using Prism GraphPad software, and the IC50 values were calculated therefrom.

MV-4-11 = assay: Cell viability assay (CellTiter-Meiluncell Luminescent), tumor cell proliferation, MV-4-11; settings: Homo sapiens, MV4-11, 96 h; for inhibition at 0.01 µM: read-out: Inhibition Rate at 10 nM (%); for inhibition at 0.5 µM: read-out: Inhibition Rate at 500 nM (%)
IKZF3 = molecular target: T2, IKZF3 (Homo sapiens, UniProt Q96SW2+Q9UKT9); assay: Western-blot assay, substrate protein degradation in hPBMCs: IKZF3; type: cell-based; settings: 24 hours of compound treatment, 50 nM and 500 nM
T2 construct: effects of the compounds of the present disclosure on the expression of target proteins in cells; endogenous in cells; host or cells: human PBMCs (hPBMCs)

CK1α = molecular target: T3, CK1α (Homo sapiens, UniProt P48729+Q96SW2); assay: Western-blot assay, substrate protein degradation in hPBMCs: CK1α; type: cell-based; settings: 24 hours of compound treatment, 50 nM and 500 nM
T3 construct: effects of the compounds of the present disclosure on the expression of target proteins in cells; endogenous in cells; host or cells: human PBMCs (hPBMCs)

IKZF2 = molecular target: T4, IKZF2 (Homo sapiens, UniProt Q96SW2+Q9UKS7); assay: Western-blot assay, substrate protein degradation in hPBMCs: IKZF2; type: cell-based; settings: 24 hours of compound treatment, 50 nM and 500 nM
T4 construct: effects of the compounds of the present disclosure on the expression of target proteins in cells; endogenous in cells; host or cells: human PBMCs (hPBMCs)

H292 = assay: Cell viability assay (CellTiter-Meiluncell Luminescent), tumor cell proliferation, H292; settings: Homo sapiens, NCI-H292, 96 h; for inhibition at 0.01 µM: read-out: Inhibition Rate at 10 nM (%); for inhibition at 0.5 µM: read-out: Inhibition Rate at 500 nM (%)
WEE1 = molecular target: T5, WEE1 (Homo sapiens, UniProt P30291+Q96SW2); assay: Western-blot assay, substrate protein degradation in hPBMCs: WEE1; type: cell-based; settings: 24 hours of compound treatment, 50 nM and 500 nM
T5 construct: effects of the compounds of the present disclosure on the expression of target proteins in cells; endogenous in cells; host or cells: human PBMCs (hPBMCs)

IKZF1 = molecular target: T6, IKZF1 (Homo sapiens, UniProt Q13422+Q96SW2); assay: Western-blot assay, substrate protein degradation in hPBMCs: IKZF1; type: cell-based; settings: 24 hours of compound treatment, 50 nM and 500 nM
T6 construct: effects of the compounds of the present disclosure on the expression of target proteins in cells; endogenous in cells; host or cells: human PBMCs (hPBMCs)

MM.1S = assay: Cell viability assay (CellTiter-Meiluncell Luminescent), tumor cell proliferation, MM.1S; settings: Homo sapiens, MM1.S, 96 h; for inhibition at 0.01 µM: read-out: Inhibition Rate at 10 nM (%); for inhibition at 0.5 µM: read-out: Inhibition Rate at 500 nM (%)
MDA-MB-231 = assay: Cell viability assay (CellTiter-Meiluncell Luminescent), tumor cell proliferation, MDA-MB-231; settings: Homo sapiens, MDA-MB-231, 96 h; for inhibition at 0.01 µM: read-out: Inhibition Rate at 10 nM (%); for inhibition at 0.5 µM: read-out: Inhibition Rate at 500 nM (%)

T4 sequence (Q9UKS7 whole entry): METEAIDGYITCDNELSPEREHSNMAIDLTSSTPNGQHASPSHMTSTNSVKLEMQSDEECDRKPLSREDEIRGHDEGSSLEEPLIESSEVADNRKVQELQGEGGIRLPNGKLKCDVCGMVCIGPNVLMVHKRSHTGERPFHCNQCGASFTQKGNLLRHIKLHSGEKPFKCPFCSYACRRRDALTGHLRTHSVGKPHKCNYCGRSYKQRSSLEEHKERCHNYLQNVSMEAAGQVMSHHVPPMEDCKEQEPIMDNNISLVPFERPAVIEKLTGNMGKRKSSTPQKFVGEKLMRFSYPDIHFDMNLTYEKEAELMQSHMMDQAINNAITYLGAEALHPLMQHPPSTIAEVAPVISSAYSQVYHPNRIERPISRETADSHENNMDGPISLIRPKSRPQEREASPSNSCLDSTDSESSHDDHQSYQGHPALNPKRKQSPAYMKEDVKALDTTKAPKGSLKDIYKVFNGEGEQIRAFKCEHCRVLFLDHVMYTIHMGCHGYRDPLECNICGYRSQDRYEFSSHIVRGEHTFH
T4 sequence (Q96SW2 whole entry): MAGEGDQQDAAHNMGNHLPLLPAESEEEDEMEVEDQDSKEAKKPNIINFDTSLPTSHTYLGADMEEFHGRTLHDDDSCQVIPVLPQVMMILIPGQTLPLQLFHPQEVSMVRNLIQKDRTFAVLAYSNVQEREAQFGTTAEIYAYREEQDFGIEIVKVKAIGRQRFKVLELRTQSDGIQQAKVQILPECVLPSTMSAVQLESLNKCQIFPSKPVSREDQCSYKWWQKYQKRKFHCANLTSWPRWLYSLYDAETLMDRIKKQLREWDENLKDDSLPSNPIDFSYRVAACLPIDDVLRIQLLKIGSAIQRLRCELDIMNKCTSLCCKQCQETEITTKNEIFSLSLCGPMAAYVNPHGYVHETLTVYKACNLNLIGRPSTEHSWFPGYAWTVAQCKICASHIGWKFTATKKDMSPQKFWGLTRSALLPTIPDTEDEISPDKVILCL
T4 sequence (Q16531 whole entry partner): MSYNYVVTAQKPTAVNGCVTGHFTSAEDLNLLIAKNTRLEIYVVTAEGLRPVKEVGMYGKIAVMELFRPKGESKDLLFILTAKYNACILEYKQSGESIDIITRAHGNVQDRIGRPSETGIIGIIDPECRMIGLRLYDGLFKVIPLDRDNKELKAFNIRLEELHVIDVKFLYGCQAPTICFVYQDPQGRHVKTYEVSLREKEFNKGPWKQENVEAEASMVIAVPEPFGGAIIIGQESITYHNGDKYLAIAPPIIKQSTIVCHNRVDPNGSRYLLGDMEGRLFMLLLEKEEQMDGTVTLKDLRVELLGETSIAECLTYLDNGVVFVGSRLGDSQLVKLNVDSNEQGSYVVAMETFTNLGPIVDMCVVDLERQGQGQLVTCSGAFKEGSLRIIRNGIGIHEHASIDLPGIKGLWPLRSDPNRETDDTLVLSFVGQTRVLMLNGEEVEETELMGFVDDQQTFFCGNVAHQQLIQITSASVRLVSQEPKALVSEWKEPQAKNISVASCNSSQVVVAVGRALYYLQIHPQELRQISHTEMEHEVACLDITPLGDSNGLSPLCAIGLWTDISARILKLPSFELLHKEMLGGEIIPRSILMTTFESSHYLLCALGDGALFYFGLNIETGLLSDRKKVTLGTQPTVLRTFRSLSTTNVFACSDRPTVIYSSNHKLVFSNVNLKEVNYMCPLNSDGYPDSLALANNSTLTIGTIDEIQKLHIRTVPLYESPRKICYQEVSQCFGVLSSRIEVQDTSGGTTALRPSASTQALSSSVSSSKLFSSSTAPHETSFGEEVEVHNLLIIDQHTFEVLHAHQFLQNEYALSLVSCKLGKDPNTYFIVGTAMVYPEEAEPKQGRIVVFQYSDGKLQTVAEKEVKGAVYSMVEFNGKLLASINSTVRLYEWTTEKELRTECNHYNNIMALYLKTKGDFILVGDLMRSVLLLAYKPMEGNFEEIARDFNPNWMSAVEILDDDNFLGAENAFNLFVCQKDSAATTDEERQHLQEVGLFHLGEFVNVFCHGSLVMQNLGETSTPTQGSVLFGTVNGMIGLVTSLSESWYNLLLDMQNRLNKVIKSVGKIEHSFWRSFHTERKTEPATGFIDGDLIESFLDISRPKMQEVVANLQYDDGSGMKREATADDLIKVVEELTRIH
T5 sequence (P30291 whole entry): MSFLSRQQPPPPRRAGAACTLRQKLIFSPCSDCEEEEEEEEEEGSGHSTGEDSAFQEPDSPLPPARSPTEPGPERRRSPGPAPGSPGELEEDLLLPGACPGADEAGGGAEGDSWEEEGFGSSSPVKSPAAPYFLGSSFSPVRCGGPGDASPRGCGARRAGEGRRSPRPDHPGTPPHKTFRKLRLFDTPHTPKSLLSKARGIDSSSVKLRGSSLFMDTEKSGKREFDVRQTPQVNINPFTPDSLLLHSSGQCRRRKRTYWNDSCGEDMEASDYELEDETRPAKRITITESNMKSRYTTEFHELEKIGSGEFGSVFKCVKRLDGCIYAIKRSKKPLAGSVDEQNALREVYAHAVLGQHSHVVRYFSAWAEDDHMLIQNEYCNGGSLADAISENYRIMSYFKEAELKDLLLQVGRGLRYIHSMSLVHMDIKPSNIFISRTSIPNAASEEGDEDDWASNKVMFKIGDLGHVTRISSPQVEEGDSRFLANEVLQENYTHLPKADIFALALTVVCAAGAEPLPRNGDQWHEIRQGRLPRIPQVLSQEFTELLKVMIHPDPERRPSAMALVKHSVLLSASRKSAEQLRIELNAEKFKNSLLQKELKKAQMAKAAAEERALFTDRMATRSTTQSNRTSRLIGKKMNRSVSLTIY
T5 sequence (Q96SW2 whole entry): as the sequence (Q96SW2 whole entry) above
T5 sequence (Q16531 whole entry partner): as the sequence (Q16531 whole entry partner) above
T3 sequence (P48729 whole entry): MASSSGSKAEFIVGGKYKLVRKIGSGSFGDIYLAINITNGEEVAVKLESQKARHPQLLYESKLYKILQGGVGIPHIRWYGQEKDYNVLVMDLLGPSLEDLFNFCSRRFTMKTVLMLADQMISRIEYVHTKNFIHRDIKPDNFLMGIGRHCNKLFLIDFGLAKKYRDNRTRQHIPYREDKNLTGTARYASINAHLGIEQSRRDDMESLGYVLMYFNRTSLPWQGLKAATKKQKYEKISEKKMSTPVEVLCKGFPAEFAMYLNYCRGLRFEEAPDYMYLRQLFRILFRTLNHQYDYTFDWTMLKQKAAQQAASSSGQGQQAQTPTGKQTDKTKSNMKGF
T3 sequence (Q96SW2 whole entry): as the sequence (Q96SW2 whole entry) above
T3 sequence (Q16531 whole entry partner): as the sequence (Q16531 whole entry partner) above
T1 sequence (P15170 whole entry): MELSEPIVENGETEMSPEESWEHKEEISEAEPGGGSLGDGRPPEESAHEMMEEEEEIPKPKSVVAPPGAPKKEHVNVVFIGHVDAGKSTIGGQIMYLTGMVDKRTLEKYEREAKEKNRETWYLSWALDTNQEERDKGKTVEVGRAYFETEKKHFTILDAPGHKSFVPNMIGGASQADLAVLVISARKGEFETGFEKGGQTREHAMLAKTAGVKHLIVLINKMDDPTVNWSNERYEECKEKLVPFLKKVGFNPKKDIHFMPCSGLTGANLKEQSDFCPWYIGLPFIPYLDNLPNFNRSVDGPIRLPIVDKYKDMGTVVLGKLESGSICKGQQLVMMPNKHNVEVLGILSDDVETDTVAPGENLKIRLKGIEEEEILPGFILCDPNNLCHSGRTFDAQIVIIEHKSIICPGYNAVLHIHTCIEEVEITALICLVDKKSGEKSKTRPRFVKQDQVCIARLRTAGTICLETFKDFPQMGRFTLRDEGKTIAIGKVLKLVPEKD
T1 sequence (Q96SW2 whole entry): as the sequence (Q96SW2 whole entry) above
T1 sequence (Q16531 whole entry partner): as the sequence (Q16531 whole entry partner) above
T2 sequence (Q9UKT9 whole entry): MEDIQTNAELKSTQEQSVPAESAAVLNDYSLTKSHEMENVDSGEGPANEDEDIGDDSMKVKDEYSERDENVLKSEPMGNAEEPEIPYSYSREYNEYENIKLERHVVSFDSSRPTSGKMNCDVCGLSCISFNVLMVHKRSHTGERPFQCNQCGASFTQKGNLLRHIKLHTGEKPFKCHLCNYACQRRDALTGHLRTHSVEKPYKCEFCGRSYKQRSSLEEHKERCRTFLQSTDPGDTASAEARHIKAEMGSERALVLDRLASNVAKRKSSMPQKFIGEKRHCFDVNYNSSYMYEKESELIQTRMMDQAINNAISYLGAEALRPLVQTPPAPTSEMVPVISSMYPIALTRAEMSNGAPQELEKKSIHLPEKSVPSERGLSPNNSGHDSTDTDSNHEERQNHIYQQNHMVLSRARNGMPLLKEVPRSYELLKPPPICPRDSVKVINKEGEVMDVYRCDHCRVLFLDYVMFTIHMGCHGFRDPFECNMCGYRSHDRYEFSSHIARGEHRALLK
T2 sequence (Q96SW2 whole entry): as the sequence (Q96SW2 whole entry) above
T2 sequence (Q16531 whole entry partner): as the sequence (Q16531 whole entry partner) above

CC(C)c1cc2c(N3CCN(Cc4ccc5c(c4)C(=O)N(N4CCC(=O)NC4=O)C5=O)CC3)ncnc2s1 [GT-08093, 2-(2,4-dioxotetrahydropyrimidin-1(2H)-yl)-5-((4-(6-isopropylthieno[2,3-d]pyrimidin-4-yl)piperazin-1-yl)methyl)isoindoline-1,3-dione]
substrate protein remaining % GSPT1 (GSPT1): A (0% ≤ substrate protein remaining % ≤ 80%)
inhibition at 0.01 µM (H2228): 20 to 25%
inhibition at 0.5 µM (H2228): 20 to 25%
inhibition at 0.01 µM (MV-4-11): 40 to 60%
inhibition at 0.5 µM (MV-4-11): 60 to 80%
substrate protein remaining % IKZF3 (IKZF3): B (80%< substrate protein remaining %≤ 100%)
substrate protein remaining % CK1α (CK1α): A (0% ≤ substrate protein remaining % ≤ 80%)
substrate protein remaining % IKZF2 (IKZF2): B (80%< substrate protein remaining %≤ 100%)
inhibition at 0.01 µM (H292): 15 to 20%
inhibition at 0.5 µM (H292): 15 to 20%
substrate protein remaining % WEE1 (WEE1): A (0% ≤ substrate protein remaining % ≤ 80%)
substrate protein remaining % IKZF1 (IKZF1): B (80%< substrate protein remaining %≤ 100%)

O=C1CCN(N2C(=O)c3ccc(CN4CCN(c5ncnc6scc(-c7ccccc7)c56)CC4)cc3C2=O)C(=O)N1 [GT-08098, 2-(2,4-dioxotetrahydropyrimidin-1(2H)-yl)-5-((4-(5-phenylthieno[2,3-d]pyrimidin-4-yl)piperazin-1-yl)methyl)isoindoline-1,3-dione]
substrate protein remaining % GSPT1 (GSPT1): A (0% ≤ substrate protein remaining % ≤ 80%)
inhibition at 0.01 µM (H2228): 10 to 15%
inhibition at 0.5 µM (H2228): 25 to 30%
inhibition at 0.01 µM (MV-4-11): 18 to 25%
inhibition at 0.5 µM (MV-4-11): 18 to 25%
substrate protein remaining % IKZF3 (IKZF3): B (80%< substrate protein remaining %≤ 100%)
substrate protein remaining % CK1α (CK1α): B (80%< substrate protein remaining %≤ 100%)
substrate protein remaining % IKZF2 (IKZF2): B (80%< substrate protein remaining %≤ 100%)
substrate protein remaining % WEE1 (WEE1): B (80%< substrate protein remaining %≤ 100%)
substrate protein remaining % IKZF1 (IKZF1): B (80%< substrate protein remaining %≤ 100%)

Cc1nc(N2CCN(Cc3ccc4c(c3)C(=O)N(N3CCC(=O)NC3=O)C4=O)CC2)c2c3c(sc2n1)CCC3 [GT-08104, 2-(2,4-dioxotetrahydropyrimidin-1(2H)-yl)-5-((4-(2-methyl-6,7-dihydro-5H-cyclopenta[4,5]thieno[2,3-d]pyrimidin-4-yl)piperazin-1-yl)methyl)isoindoline-1,3-dione]
substrate protein remaining % GSPT1 (GSPT1): A (0% ≤ substrate protein remaining % ≤ 80%)
inhibition at 0.01 µM (MV-4-11): 40 to 60%
inhibition at 0.5 µM (MV-4-11): 40 to 60%
substrate protein remaining % IKZF3 (IKZF3): A (0% ≤ substrate protein remaining % ≤ 80%)
substrate protein remaining % CK1α (CK1α): B (80%< substrate protein remaining %≤ 100%)
inhibition at 0.01 µM (MM.1S): 20 to 30%
inhibition at 0.5 µM (MM.1S): 30 to 42%
substrate protein remaining % IKZF2 (IKZF2): A (0% ≤ substrate protein remaining % ≤ 80%)
substrate protein remaining % WEE1 (WEE1): A (0% ≤ substrate protein remaining % ≤ 80%)
substrate protein remaining % IKZF1 (IKZF1): B (80%< substrate protein remaining %≤ 100%)

Cc1cc2c(C3=CCN(Cc4ccc5c(c4)CN(N4CCC(=O)NC4=O)C5=O)CC3)ncnc2s1 [GT-08157, 1-(5-((4-(6-methylthieno[2,3-d]pyrimidin-4-yl)-3,6-dihydropyridin-1(2H)-yl)methyl)-1-oxoisoindolin-2-yl)dihydropyrimidine-2,4(1H,3H)-dione]
inhibition at 0.01 µM (MV-4-11): 18 to 25%
inhibition at 0.5 µM (MV-4-11): 80 to 100%
inhibition at 0.01 µM (MDA-MB-231): 15 to 18%
inhibition at 0.5 µM (MDA-MB-231): 25 to 40%
inhibition at 0.01 µM (MM.1S): -5 to 0%
inhibition at 0.5 µM (MM.1S): 80 to 100%
inhibition at 0.01 µM (H292): 20 to 40%
inhibition at 0.5 µM (H292): 15 to 20%

Cc1nc(C2=CCN(Cc3ccc4c(c3)CN(N3CCC(=O)NC3=O)C4=O)CC2)c2ccsc2n1 [GT-08175, 1-(5-((4-(2-methylthieno[2,3-d]pyrimidin-4-yl)-3,6-dihydropyridin-1(2H)-yl)methyl)-1-oxoisoindolin-2-yl)dihydropyrimidine-2,4(1H,3H)-dione]
inhibition at 0.01 µM (MV-4-11): 18 to 25%
inhibition at 0.5 µM (MV-4-11): 80 to 100%
inhibition at 0.01 µM (MM.1S): -10 to -5%
inhibition at 0.5 µM (MM.1S): 80 to 100%

O=C1CCN(N2Cc3cc(CN4CC=C(c5ncnc6sc7c(c56)CCCC7)CC4)ccc3C2=O)C(=O)N1 [GT-08178, 1-(1-oxo-5-((4-(5,6,7,8-tetrahydrobenzo[4,5]thieno[2,3-d]pyrimidin-4-yl)-3,6-dihydropyridin-1(2H)-yl)methyl)isoindolin-2-yl)dihydropyrimidine-2,4(1H,3H)-dione]
inhibition at 0.01 µM (MV-4-11): 60 to 80%
inhibition at 0.5 µM (MV-4-11): 80 to 100%
inhibition at 0.01 µM (MDA-MB-231): 18 to 25%
inhibition at 0.5 µM (MDA-MB-231): 18 to 25%
inhibition at 0.01 µM (MM.1S): 60 to 80%
inhibition at 0.5 µM (MM.1S): 60 to 80%
inhibition at 0.01 µM (H292): 40 to 60%
inhibition at 0.5 µM (H292): 20 to 40%

O=C1CCN(N2Cc3cc(CN4CC=C(c5ncc6ccsc6n5)CC4)ccc3C2=O)C(=O)N1 [GT-08438, 1-(1-oxo-5-((4-(thieno[2,3-d]pyrimidin-2-yl)-3,6-dihydropyridin-1(2H)-yl)methyl)isoindolin-2-yl)dihydropyrimidine-2,4(1H,3H)-dione]
substrate protein remaining % GSPT1 (GSPT1): A (0% ≤ substrate protein remaining % ≤ 80%)
substrate protein remaining % IKZF3 (IKZF3): A (0% ≤ substrate protein remaining % ≤ 80%)
substrate protein remaining % CK1α (CK1α): B (80%< substrate protein remaining %≤ 100%)
inhibition at 0.01 µM (MM.1S): 20 to 30%
inhibition at 0.5 µM (MM.1S): 80 to 100%
substrate protein remaining % IKZF2 (IKZF2): B (80%< substrate protein remaining %≤ 100%)
inhibition at 0.01 µM (H292): 20 to 40%
inhibition at 0.5 µM (H292): 10 to 15%
substrate protein remaining % WEE1 (WEE1): A (0% ≤ substrate protein remaining % ≤ 80%)
substrate protein remaining % IKZF1 (IKZF1): A (0% ≤ substrate protein remaining % ≤ 80%)

O=C1CCN(N2Cc3cc(CN4CCN(c5nc(N6CCOCC6)nc6ccsc56)CC4)ccc3C2=O)C(=O)N1 [GT-08446, 1-(5-((4-(2-morpholinothieno[3,2-d]pyrimidin-4-yl)piperazin-1-yl)methyl)-1-oxoisoindolin-2-yl)dihydropyrimidine-2,4(1H,3H)-dione]
substrate protein remaining % GSPT1 (GSPT1): A (0% ≤ substrate protein remaining % ≤ 80%)
substrate protein remaining % IKZF3 (IKZF3): A (0% ≤ substrate protein remaining % ≤ 80%)
substrate protein remaining % CK1α (CK1α): B (80%< substrate protein remaining %≤ 100%)
inhibition at 0.01 µM (MM.1S): 42 to 60%
inhibition at 0.5 µM (MM.1S): 30 to 42%
substrate protein remaining % IKZF2 (IKZF2): B (80%< substrate protein remaining %≤ 100%)
inhibition at 0.01 µM (H292): 20 to 40%
inhibition at 0.5 µM (H292): 20 to 40%
substrate protein remaining % WEE1 (WEE1): B (80%< substrate protein remaining %≤ 100%)
substrate protein remaining % IKZF1 (IKZF1): B (80%< substrate protein remaining %≤ 100%)

Cc1nc(C2=CCN(Cc3ccc4c(c3)C(=O)N(N3CCC(=O)NC3=O)C4=O)CC2)c2c(-c3ccccc3)csc2n1 [GT-08484, 2-(2,4-dioxotetrahydropyrimidin-1(2H)-yl)-5-((4-(2-methyl-5-phenylthieno[2,3-d]pyrimidin-4-yl)-3,6-dihydropyridin-1(2H)-yl)methyl)isoindoline-1,3-dione]
substrate protein remaining % GSPT1 (GSPT1): A (0% ≤ substrate protein remaining % ≤ 80%)
substrate protein remaining % IKZF3 (IKZF3): A (0% ≤ substrate protein remaining % ≤ 80%)
substrate protein remaining % CK1α (CK1α): A (0% ≤ substrate protein remaining % ≤ 80%)
inhibition at 0.01 µM (MM.1S): 42 to 60%
inhibition at 0.5 µM (MM.1S): 20 to 30%
substrate protein remaining % IKZF2 (IKZF2): A (0% ≤ substrate protein remaining % ≤ 80%)
inhibition at 0.01 µM (H292): 20 to 40%
inhibition at 0.5 µM (H292): 15 to 20%
substrate protein remaining % WEE1 (WEE1): A (0% ≤ substrate protein remaining % ≤ 80%)
substrate protein remaining % IKZF1 (IKZF1): A (0% ≤ substrate protein remaining % ≤ 80%)
